From the CheMixHub viscosity set
Several values for one entry are separate records, joined by “and”; a condition that tells them apart may be missing. Identical values can stand only once. ± gives the uncertainty stated by the source.

SMILES: CC(O)CC(C)(C)O (stereo unspecified)
- viscosity (308.15 K, 101 kPa): 20.29 ± 2 mPa·s and 20.37 ± 2 mPa·s
- viscosity (318.15 K, 101 kPa): 17.79 ± 1.8 mPa·s and 17.73 ± 1.8 mPa·s

SMILES: CCC[n+]1ccn(C)c1C.O=S(=O)([N-]S(=O)(=O)C(F)(F)F)C(F)(F)F
- viscosity (298.15 K, 101 kPa): 85.6 ± 2.5 mPa·s

SMILES: Cc1ccccc1N
- viscosity (298.15 K, 100 kPa): 3.718 ± 0.079 mPa·s
- viscosity (298.15 K, 101 kPa): 3.645 ± 0.097 mPa·s
- viscosity (303.15 K, 100 kPa): 3.258 ± 0.065 mPa·s and 3.258 ± 0.07 mPa·s and 3.26 ± 0.1 mPa·s
- viscosity (303.15 K, 101 kPa): 3.1 ± 0.08 mPa·s
- viscosity (308.15 K, 100 kPa): 2.824 ± 0.064 mPa·s and 2.824 ± 0.061 mPa·s and 2.82 ± 0.09 mPa·s
- viscosity (313.15 K, 100 kPa): 2.487 ± 0.063 mPa·s and 2.487 ± 0.053 mPa·s and 2.49 ± 0.08 mPa·s
- viscosity (318.15 K, 100 kPa): 2.153 ± 0.063 mPa·s and 2.153 ± 0.047 mPa·s and 2.15 ± 0.07 mPa·s

SMILES: ClC(Cl)(Cl)c1ccccc1
- viscosity (298.15 K, 101.33 kPa): 2.18 ± 0.019 mPa·s

SMILES: NCCCO
- viscosity (303.15 K, 101 kPa): 24.12 ± 0.43 mPa·s
- viscosity (308.15 K, 101 kPa): 18.98 ± 0.34 mPa·s
- viscosity (318.15 K, 101 kPa): 12.35 ± 0.51 mPa·s

SMILES: O=S(=O)(Cl)Cl
- viscosity (298.15 K, 101 kPa): 0.685 ± 0.018 mPa·s

SMILES: O=S1(=O)CCCC1
- viscosity (298.15 K, 101.3 kPa): 10.28 ± 0.13 mPa·s
- viscosity (308.15 K, 100 kPa): 8.795 ± 0.17 mPa·s
- viscosity (308.15 K, 101.3 kPa): 8.258 ± 0.11 mPa·s
- viscosity (318.15 K, 101 kPa): 7.18 ± 0.72 mPa·s and 7.17 ± 0.74 mPa·s and 6.912 ± 0.037 mPa·s
- viscosity (318.15 K, 101.3 kPa): 6.256 ± 0.085 mPa·s
- viscosity (323.15 K, 101.33 kPa): 6.346 ± 0.032 mPa·s

SMILES: OC1COCOC1
- viscosity (298.15 K, 101 kPa): 13.11 ± 0.29 mPa·s
- viscosity (308.15 K, 101 kPa): 8.963 ± 0.2 mPa·s
- viscosity (318.15 K, 101 kPa): 6.508 ± 0.15 mPa·s and 6.58 ± 0.15 mPa·s

SMILES: c1ccc2sccc2c1
- viscosity (308.15 K, 101 kPa): 2.94 ± 0.4 mPa·s
- viscosity (318.15 K, 101 kPa): 2.06 ± 0.13 mPa·s
